Values quoted from earlier work in patent US9808437B2, “Monounsaturated fatty acid compositions and use for treating atherosclerosis” (BURKE & BOYER NYC, priority 2014, dated 2017).

Test system: ApoE-deficient mice
Conditions: 20 mg/kg/day; control 21.9 ± 2.9; P<0.05

In the case of CC(C)c1nc(N(C)S(C)(=O)=O)nc(-c2ccc(F)cc2)c1/C=C/[C@@H](O)C[C@@H](O)CC(=O)O [Rosuvastatin], the “Aortic Lesion” value is given as 11.9 ± 1.9 %.
